Tests used:
[1] = biological target: T1, Myotonin-protein kinase (Homo sapiens) (UniProt Q09013); assay: Residual activity of DMPK at 1 uM by microplate scintillation counting
T1 sequence (whole entry): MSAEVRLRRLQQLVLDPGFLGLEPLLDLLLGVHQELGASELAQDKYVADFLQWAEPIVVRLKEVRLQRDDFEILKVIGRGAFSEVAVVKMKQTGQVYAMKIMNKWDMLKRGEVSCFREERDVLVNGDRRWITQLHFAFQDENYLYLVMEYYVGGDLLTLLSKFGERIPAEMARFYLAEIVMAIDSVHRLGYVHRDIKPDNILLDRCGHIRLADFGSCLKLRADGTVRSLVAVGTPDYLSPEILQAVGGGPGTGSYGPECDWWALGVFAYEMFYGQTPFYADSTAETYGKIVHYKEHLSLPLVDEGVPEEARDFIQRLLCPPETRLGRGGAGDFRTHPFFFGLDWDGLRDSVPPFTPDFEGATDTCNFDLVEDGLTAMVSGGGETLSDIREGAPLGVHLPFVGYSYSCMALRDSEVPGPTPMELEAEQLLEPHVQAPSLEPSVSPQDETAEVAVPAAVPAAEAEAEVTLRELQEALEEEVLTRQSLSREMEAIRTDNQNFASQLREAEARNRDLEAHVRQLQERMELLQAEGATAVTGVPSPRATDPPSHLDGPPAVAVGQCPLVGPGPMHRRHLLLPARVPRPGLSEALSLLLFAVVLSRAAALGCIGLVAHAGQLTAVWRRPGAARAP

[2] = biological target: Fibroblast growth factor receptor 4 (Homo sapiens) (UniProt P22455); assay: Residual activity of FGFR4 at 1 uM by microplate scintillation counting
Sequence of Fibroblast growth factor receptor 4 (Homo sapiens) (P22455 22-802 limits assumed): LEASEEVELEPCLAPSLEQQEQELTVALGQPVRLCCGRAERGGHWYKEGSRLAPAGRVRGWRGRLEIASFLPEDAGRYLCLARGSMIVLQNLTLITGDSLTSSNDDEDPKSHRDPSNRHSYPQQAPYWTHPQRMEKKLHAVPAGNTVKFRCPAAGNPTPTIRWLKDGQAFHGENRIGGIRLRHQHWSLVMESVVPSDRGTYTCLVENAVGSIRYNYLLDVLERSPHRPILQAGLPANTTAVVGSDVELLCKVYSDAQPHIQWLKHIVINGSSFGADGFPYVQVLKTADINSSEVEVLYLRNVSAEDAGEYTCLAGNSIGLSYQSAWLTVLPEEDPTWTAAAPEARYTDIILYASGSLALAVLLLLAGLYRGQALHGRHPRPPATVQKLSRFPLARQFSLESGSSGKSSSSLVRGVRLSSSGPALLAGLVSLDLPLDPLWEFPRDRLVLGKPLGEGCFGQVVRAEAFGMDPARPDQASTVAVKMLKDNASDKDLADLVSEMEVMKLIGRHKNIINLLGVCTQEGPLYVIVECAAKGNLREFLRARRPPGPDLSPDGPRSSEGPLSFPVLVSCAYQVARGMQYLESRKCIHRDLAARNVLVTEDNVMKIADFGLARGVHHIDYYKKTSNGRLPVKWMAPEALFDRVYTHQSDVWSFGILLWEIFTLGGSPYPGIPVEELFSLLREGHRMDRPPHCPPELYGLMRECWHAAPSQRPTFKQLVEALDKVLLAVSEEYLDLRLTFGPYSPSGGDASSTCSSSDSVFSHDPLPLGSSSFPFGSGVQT

[3] = biological target: Homeodomain-interacting protein kinase 3 (Homo sapiens) (UniProt Q9H422); assay: Residual activity of HIPK3 at 1 uM by microplate scintillation counting
Sequence of Homeodomain-interacting protein kinase 3 (Homo sapiens) (Q9H422 whole entry, looked up): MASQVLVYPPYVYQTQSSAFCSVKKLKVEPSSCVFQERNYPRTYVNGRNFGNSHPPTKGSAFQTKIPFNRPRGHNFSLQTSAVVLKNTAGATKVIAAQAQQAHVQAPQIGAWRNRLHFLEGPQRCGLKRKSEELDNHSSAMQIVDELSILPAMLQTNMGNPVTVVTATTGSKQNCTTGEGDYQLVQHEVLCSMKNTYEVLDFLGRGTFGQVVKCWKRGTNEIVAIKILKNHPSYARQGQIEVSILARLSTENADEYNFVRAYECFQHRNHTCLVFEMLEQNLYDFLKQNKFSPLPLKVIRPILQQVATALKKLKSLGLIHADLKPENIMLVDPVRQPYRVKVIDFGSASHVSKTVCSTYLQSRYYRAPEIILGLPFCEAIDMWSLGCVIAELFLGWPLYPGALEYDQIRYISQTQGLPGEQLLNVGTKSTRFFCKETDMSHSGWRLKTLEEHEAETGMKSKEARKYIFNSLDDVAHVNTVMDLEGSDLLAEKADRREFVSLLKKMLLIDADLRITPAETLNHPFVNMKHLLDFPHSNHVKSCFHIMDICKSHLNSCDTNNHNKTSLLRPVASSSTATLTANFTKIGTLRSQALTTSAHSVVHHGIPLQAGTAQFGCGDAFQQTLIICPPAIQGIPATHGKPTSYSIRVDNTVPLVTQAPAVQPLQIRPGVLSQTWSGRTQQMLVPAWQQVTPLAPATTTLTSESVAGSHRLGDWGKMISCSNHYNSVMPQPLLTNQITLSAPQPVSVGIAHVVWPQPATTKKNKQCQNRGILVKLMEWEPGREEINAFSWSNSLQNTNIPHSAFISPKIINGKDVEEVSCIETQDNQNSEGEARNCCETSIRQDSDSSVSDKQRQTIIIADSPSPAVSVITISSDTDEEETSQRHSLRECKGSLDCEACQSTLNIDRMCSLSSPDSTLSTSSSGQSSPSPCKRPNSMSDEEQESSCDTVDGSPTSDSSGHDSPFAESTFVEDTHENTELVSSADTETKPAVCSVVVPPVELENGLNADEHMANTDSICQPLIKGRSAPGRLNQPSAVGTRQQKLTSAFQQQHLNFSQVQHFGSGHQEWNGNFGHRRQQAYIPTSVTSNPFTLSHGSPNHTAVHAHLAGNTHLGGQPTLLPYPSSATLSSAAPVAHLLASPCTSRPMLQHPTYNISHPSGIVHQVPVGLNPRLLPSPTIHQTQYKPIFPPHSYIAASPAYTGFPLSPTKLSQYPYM

[4] = biological target: T2, Inhibitor of nuclear factor kappa-B kinase subunit epsilon (Homo sapiens) (UniProt Q14164); assay: Residual activity of IKKepsilon at 0.1 uM by microplate scintillation counting
T2 sequence (whole entry): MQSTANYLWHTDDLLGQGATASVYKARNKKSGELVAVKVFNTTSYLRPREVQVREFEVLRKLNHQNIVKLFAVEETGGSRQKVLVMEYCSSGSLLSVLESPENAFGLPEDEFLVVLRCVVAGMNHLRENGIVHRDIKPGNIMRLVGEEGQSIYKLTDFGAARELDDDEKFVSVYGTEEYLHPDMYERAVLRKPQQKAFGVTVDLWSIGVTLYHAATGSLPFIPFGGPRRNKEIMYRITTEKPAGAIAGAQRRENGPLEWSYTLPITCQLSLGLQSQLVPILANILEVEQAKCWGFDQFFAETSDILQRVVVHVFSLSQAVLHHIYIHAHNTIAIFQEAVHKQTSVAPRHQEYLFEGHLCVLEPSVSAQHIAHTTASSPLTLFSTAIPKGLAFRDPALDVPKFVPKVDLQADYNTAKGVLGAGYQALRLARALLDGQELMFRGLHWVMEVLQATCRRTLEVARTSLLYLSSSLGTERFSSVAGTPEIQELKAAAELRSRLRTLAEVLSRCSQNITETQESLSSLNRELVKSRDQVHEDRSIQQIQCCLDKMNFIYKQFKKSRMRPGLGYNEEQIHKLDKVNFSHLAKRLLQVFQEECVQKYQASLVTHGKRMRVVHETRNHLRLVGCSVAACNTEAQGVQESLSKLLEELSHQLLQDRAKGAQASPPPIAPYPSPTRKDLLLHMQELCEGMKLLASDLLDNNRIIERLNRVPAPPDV

[5] = biological target: T3, Tyrosine-protein kinase JAK3 (Homo sapiens) (UniProt P52333); assay: Residual activity of JAK3 at 1 uM by microplate scintillation counting
T3 sequence (whole entry): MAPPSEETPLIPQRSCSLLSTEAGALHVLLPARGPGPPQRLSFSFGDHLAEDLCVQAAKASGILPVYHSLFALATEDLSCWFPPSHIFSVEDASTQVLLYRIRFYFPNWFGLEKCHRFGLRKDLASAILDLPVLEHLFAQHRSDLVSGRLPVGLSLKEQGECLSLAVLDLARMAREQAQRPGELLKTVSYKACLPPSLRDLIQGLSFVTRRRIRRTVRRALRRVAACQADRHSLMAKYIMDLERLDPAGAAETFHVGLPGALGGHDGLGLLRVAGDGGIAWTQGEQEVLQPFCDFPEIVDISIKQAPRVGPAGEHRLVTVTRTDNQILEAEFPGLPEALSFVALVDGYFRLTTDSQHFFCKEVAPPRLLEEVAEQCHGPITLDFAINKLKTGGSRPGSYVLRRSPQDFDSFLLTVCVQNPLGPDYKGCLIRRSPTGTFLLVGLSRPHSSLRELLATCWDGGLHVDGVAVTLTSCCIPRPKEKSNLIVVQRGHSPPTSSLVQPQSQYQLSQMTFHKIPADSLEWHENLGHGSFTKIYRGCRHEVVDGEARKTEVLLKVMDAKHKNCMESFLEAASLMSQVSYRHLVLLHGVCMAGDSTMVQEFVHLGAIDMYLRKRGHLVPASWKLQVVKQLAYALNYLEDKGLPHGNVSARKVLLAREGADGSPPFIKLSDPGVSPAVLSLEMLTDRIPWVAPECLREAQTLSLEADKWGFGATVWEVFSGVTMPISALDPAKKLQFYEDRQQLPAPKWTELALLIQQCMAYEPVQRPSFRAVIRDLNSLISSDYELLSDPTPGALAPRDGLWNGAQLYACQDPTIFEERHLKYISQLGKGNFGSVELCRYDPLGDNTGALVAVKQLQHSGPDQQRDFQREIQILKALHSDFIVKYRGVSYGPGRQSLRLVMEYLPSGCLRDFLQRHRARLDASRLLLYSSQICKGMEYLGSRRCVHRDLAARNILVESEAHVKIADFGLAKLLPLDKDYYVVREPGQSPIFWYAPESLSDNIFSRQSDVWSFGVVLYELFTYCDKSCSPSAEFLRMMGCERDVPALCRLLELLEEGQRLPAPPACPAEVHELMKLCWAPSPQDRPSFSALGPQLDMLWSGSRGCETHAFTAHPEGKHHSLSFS

[6] = biological target: Vascular endothelial growth factor receptor 2 (Homo sapiens, UniProt P35968); assay: Residual activity of VEGFR2 at 1 uM by microplate scintillation counting
Sequence of Vascular endothelial growth factor receptor 2 (P35968 whole entry): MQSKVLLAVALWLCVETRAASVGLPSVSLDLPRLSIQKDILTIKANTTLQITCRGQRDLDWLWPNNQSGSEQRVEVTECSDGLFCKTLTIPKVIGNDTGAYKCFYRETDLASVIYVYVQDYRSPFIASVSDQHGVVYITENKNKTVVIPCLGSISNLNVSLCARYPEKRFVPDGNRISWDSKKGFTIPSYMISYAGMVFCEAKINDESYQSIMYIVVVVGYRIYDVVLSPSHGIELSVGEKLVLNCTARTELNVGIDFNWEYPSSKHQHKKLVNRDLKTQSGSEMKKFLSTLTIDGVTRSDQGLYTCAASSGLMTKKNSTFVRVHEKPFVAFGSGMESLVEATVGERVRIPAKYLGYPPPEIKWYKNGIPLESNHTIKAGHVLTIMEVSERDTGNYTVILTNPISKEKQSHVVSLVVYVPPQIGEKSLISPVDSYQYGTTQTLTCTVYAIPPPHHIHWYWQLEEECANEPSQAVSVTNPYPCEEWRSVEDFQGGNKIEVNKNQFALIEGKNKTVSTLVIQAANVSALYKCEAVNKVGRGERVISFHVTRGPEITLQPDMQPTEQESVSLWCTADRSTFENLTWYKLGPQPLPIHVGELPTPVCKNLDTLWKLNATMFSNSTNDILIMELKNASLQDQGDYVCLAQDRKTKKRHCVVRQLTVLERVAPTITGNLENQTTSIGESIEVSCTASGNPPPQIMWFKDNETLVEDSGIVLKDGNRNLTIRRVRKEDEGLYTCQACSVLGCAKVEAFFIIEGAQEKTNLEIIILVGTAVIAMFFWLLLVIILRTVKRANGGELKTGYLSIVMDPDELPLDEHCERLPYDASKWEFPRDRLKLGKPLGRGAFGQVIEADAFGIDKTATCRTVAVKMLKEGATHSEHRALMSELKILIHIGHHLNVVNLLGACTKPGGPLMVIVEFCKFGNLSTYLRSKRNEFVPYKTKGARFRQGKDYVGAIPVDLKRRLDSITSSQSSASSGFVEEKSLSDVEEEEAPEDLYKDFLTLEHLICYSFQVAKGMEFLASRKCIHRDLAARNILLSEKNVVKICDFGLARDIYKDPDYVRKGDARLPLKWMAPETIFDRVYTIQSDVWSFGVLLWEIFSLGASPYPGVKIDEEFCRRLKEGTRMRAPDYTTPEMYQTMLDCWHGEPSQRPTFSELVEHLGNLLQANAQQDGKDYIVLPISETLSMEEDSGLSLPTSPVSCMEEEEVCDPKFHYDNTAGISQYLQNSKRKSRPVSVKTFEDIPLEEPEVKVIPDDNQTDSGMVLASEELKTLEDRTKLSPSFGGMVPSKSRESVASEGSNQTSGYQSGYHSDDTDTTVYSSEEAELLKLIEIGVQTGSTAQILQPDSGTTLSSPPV

[7] = biological target: Tyrosine-protein kinase FRK (Homo sapiens) (UniProt P42685); assay: Residual activity of FRK at 10 uM by microplate scintillation counting
Sequence of Tyrosine-protein kinase FRK (Homo sapiens) (P42685 whole entry): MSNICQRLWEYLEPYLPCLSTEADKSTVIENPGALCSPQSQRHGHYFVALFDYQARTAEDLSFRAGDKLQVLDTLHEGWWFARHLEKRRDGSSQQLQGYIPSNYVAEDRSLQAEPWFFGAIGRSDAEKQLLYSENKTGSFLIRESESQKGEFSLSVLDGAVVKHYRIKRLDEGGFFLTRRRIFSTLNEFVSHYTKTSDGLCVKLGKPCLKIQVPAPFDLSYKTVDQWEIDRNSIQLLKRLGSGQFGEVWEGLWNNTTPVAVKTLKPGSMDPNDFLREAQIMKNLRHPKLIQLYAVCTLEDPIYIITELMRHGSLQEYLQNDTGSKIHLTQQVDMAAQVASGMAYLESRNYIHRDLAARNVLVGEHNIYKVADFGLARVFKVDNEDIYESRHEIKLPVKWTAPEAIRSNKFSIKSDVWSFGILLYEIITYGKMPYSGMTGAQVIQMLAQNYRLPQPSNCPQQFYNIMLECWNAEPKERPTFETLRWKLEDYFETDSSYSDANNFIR

[8] = biological target: CDC42BPA protein (Homo sapiens) (UniProt B9EGA7); assay: Residual activity of CDC42BPA at 0.1 uM by microplate scintillation counting
[9] = test system: RAF proto-oncogene serine/threonine-protein kinase (Homo sapiens), P04049 [Y340D,Y341D]; assay: Residual activity of RAF1 Y340D/Y341D mutant at 10 uM by microplate scintillation counting
[10] = biological target: Ribosomal protein S6 kinase alpha-1 (Homo sapiens) (UniProt Q15418); assay: Residual activity of RPS6KA1 at 0.1 uM by microplate scintillation counting
Sequence of Ribosomal protein S6 kinase alpha-1 (Homo sapiens) (Q15418 whole entry): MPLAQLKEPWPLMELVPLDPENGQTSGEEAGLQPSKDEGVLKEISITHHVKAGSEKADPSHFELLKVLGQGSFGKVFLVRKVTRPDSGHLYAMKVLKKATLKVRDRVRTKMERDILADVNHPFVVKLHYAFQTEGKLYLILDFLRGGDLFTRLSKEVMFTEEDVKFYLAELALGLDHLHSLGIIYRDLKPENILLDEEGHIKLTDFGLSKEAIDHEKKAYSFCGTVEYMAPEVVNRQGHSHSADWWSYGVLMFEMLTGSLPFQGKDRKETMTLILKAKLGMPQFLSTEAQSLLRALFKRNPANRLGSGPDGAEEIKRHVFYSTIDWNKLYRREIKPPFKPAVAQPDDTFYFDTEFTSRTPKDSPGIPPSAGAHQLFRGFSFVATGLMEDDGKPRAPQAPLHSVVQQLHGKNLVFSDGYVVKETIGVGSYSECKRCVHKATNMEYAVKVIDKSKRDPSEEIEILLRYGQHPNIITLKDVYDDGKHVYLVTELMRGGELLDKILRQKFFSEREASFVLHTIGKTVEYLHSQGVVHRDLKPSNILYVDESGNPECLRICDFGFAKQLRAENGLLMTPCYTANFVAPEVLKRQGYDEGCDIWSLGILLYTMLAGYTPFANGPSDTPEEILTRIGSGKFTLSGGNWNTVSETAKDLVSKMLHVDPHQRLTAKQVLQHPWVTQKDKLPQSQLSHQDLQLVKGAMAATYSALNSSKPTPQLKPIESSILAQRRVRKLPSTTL

Row | residual activity [1] [%] | residual activity [2] [%] | residual activity [3] [%] | residual activity [4] [%] | residual activity [5] [%] | residual activity [6] [%] | residual activity [7] [%] | residual activity [8] [%] | residual activity [9] [%] | residual activity [10] [%] | SMILES
1 | 104 | 137 | 86 | 92 | 93 | 49 | 71 | 104 | 61 | 79 | COc1cc2c(Oc3ccc(-c4nc5ccccc5s4)cc3)ncnc2cc1OCCCN1CCCC1
2 | 106 | 121 | 84 | 91 | 101 | 40 | 61 | 112 | 74 | 81 | COc1cc2c(Oc3ccc(-c4nc5ccccc5s4)cc3)ncnc2cc1OCCCN1CCN(C)CC1
3 | 121 | 130 | 81 | 87 | 92 | 53 | 24 | 86 | 108 | 86 | COc1cc2c(Oc3ccc(-c4nc5ccccc5s4)cc3F)ncnc2cc1OCCCN1CCN(C)CC1

From ChEMBL document CHEMBL1152560, “Substituted 2-arylbenzothiazoles as kinase inhibitors: hit-to-lead optimization” (Bioorg Med Chem, 2009)
